Where two headings read alike, the source gives them in different places.
Legend:
[1] = in vivo, prepared as an aqueous solution; cited from earlier work
[2] = cited from earlier work
[3] = Study of pharmacokinetics, intramuscular injection in male rats; type: in vivo; details: whole blood, im, rat; for AUC: read-out: AUC0=last
Protocol: Study of Pharmacokinetics
3 Male rats for each group, the compound as shown in formula (I) was administered by intramuscular injection. Whole blood samples were collected at 0.25, 0.50, 1.0, 2.0, 4.0, 8.0, 12.0, 24.0 and 48.0 hour(s) after administration of the aqueous suspension group. Whole blood samples were collected at 0.25, 0.50, 2.0, 4.0, 8.0, 10.0, 24.0, 48.0, 72.0, 96.0, 120.0 and 144.0 hour(s) after administration of the oil suspension group. After precipitating the protein with acetonitrile/methanol, the supernatant was collected for sampling and the blood concentration of the compound was determined by LC-MS/MS. The non-compartment model linear logarithmic trapezoid method was used to calculate the pharmacokinetic parameters of the compounds as shown in formula (I) and formula (II) respectively by using WinNonlin™ Version 6.3 (Pharsight, Mountain View, Calif.) pharmacokinetic software.

[4] = releases formula (II) after hydrolysis in vivo; cited from earlier work
[5] = intramuscular injection of oil suspension of formula (I), 51.4 μM/Kg
[6] = intramuscular injection of oil suspension of formula (I), 51.4 μM/Kg, 44.50 mg/mL, 0.25% Tween 80, medium chain triglyceride
[7] = intramuscular injection of aqueous suspension of formula (I), 17.5 μM/Kg

SMILES | clearance rate [1] | half-life [1] | solubility in oil solution ([2]; oil solution) | solubility in water ([2]; water) | Tmax [3, 5] | Cmax [3, 6] | AUC [3, 5] | stability in plasma [4] | AUC(0-inf) [3, 7] | Tmax [3, 7] | half-life [3, 7] | Cmax ([3]; intramuscular injection of aqueous suspension of formula (I), 17.5 μM/Kg, 25 μm/mL, 1% Tween 20, 7.5% PEG 1000, 0.75% citric acid monohydrate) | AUC [3, 7] | AUC(0-inf) [3, 5] | half-life [3, 5]
C[C@@]12CCCCC[C@@H](Cc3c(F)cc(OC(=O)CCCCCCCCC(=O)Oc4cc(F)c5c(c4)[C@@]4(C)CCCCC[C@@H](C5)[C@@H]4N)cc31)[C@@H]2N [formula (I)] | too fast | short | hardly soluble or insoluble | slightly soluble | 0.25 h | 5.05 nM | 0.11 µM·h | unstable |  |  |  |  |  |  | 
C[C@@]12CCCCC[C@@H](Cc3c(F)cc(O)cc31)[C@@H]2N [formula (II)] |  |  |  |  | 2 h | 378 nM | 10.1 µM·h |  | 5.81 µM·h | 4 h | 7.52 h | 438 nM | 5.71 µM·h | 10.4 µM·h | 24.1 h

Source: US10744109B2, “Sustained release suspension containing dezocine analogue ester and preparation method therefor” (SHANDONG DANHONG PHARMACEUTICAL CO., LTD., priority 2017, dated 2020)
